Measured values taken from patent US20230372318A1, “METHODS FOR TREATING A SUBJECT HAVING MULTIPLE SYSTEM ATROPHY” (Theravance Biopharma R&D IP, LLC, priority 2022, published 2023).

How the values were obtained:
[1] = system: subjects with symptomatic nOH; details: cited from earlier work
human recombinant DAT = target: T1, human recombinant DAT (Homo sapiens, UniProt Q01959); assay: Neurotransmitter uptake inhibition, [3H]-DA, hDAT cells; type: cell-based; details: mean, 3 to 9 experiments
T1 construct: expressed in transfected cells; host or cells: CHO-K1
Excerpt: The in vitro pharmacology of ampreloxetine at human recombinant and rat native monoamine transporters was characterized as described in Smith et al., Inter. J. Neuropsychopharmcol. (2015) 1-11; and Tsuruda et al., J. Pharmacol. Toxicol. Meth. (2010) 61:192-204. See also, e.g., U.S. Pat. Nos. 8,304,432 B2 and 8,304,433 B2. Radioligands were sourced commercially (Perkin Elmer LifeSciences or GE Healthcare Life Sciences).
Briefly, membranes prepared from HEK293 (Human Embryonic Kidney 293) or CHO-K1 (Chinese Hamster Ovary-K1) cells stably transfected with human recombinant SERT (HEK293-hSERT), NET (HEK293-hNET), or DAT (CHO-K1-hDAT) were incubated for 1 hr at 22° C. in the absence, or presence, of 4-[2-(2,4,6-trifluorophenoxymethyl)phenyl]piperidine and [^3H]-citalopram (1.0 nM) for SERT, [^3H]-nisoxetine (2.0 nM) for NET, and [^3H]-WIN35428 (3.0 nM) for DAT in 50 mM Tris-HCl, 120 mM NaCl, 5 mM KCl, 0.025% BSA, 100 μM ascorbic acid, pH 7.4. Rat cortical membrane preparations were incubated with [^3H]-citalopram (2.0 nM) for SERT or [^3H]-nisoxetine (4.0 nM) for NET for 1 hr at 22° C. […] Binding and uptake assays were terminated by rapid filtration and radioactivity determined by liquid scintillation spectroscopy. […] Selectivity for NET (rounded to one significant figure) was determined as follows: […]

[2] = target: T2, cytochrome P450 1A2 (CYP1A2) (Homo sapiens, UniProt P05177); details: healthy subjects, cited from earlier work
T2 construct: from tissue; host or cells: in vivo, healthy human subjects (as reported in Kanodia et al. 2021)
T2 sequence (P05177 whole entry): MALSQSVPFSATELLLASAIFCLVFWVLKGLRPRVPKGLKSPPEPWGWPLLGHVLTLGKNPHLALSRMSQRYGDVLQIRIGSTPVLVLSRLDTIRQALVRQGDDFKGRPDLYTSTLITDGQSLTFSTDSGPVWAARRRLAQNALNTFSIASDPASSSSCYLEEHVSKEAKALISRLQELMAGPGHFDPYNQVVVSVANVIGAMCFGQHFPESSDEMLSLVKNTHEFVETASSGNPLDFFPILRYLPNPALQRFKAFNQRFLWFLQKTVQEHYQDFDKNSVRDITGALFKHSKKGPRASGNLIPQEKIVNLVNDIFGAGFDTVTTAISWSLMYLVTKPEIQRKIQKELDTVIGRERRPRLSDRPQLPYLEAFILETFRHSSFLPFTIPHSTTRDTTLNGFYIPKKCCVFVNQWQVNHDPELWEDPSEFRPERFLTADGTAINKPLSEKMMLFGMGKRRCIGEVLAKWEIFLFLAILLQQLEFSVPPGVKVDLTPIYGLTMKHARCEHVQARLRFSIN

T1 sequence (Q01959 whole entry): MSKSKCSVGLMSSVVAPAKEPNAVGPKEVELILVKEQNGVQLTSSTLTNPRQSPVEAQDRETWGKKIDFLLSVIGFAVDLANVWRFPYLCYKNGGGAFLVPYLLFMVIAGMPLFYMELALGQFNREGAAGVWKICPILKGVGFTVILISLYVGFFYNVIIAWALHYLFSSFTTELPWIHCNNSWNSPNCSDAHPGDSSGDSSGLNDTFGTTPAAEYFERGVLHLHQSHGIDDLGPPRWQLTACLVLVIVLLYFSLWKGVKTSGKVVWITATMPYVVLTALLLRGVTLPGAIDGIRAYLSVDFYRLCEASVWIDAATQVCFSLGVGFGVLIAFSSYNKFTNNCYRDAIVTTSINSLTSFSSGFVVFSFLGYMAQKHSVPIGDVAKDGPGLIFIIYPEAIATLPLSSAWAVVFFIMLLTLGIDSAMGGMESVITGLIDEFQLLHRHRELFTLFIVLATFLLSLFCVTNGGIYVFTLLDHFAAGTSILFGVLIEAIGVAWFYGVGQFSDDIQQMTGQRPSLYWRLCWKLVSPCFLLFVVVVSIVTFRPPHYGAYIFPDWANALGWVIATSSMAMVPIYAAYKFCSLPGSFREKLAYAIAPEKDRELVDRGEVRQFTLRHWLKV

## Fc1cc(F)c(OCc2ccccc2C2CCNCC2)c(F)c1 [Ampreloxetine, 4-[2-(2,4,6-trifluorophenoxymethyl)phenyl]piperidine]
[1]; Part A, 4 hours after dosing at 10 mg
  Improvement in standing time: approximately 100 seconds
[1]; Part A, up to 20 mg
  Dose response of single ascending doses: no dose response was observed
[1]; Part B, up to 15 mg, 4- and 7-hours post-dose
  SBP following 3 minutes of standing: sustained increase in SBP over baseline
[1]; Part C, open-label 3-20 mg once-daily up to 20 weeks
  Improvement from baseline of at least 2 points in OHSA #1 score: A large proportion of subjects met this endpoint
Human recombinant DAT
  Neurotransmitter Uptake Inhibition: pIC50, DAT: 6.8
[2]; CYP1A2
  Enzyme responsible for metabolism: primary enzyme responsible for ampreloxetine metabolism
[2]
  Fraction eliminated through metabolism: > 90%
